Measurements taken from article PMC11696576, “Next generation thiazolyl ketone inhibitors of cytosolic phospholipase A2 α for targeted cancer therapy” (Nature Communications, 2025).
Where “and” joins values, the source holds several entries; their conditions need not be identical. Equal values may be shown once. Read-outs that look alike come from different tables or passages of the source.

Test system: panel of 66 cancer cell lines
Experiment: cancer cell line screen, proliferation assay (ATPlite, 72 h)
Assay type: cell-based, human
Conditions: for IC50: Homo sapiens, read-out: IC50; for raw signal, dose-response (Figure S7a): rep1, rep2, listed as AVX420
Excerpt: Targeting specific molecular vulnerabilities in cancer is considered a key approach to reducing the adverse effects of chemotherapy. However, the events that govern the susceptibility to suppression of the cPLA2α in cancer remain largely unexplored. We therefore took the approach of screening the antiproliferative activity of AVX420 in a panel of 66 cancer cell lines (hereafter referred to as the cancer cell line screen or CCLS) to allow us to investigate molecular and genetic vulnerabilities to the drug.
Screening of compound activities in 66 cancer cell lines was carried out at the Netherlands Translation Research Center. Briefly, proliferation assays were performed 72 h after compound addition using ATPlite 1step reagent (Perkin Elmer). IC50s calculated by non-linear regression analysis were used as a measure of compound activity for investigating associations with genetic factors. A complete description of the laboratory and data analysis methods are available in the Supplementary Information file (Supplemental Methods: Cancer Cell Line Screening).
Cancer cell line screening
Cell proliferation assays
All cell lines were from the American Type Culture Collection (ATCC) Manassas, Virginia (US) and maintained under ATCC-recommended protocols and within 9 pas- […]
DMSO at -80°C until one hour before use. Cells exposed within one hour after thaw-ing of the compound stocks. Final compound concentration range in the assay was 10 […]
cated by supplier. Compounds were dissolved in 100 % DMSO and stored at room temperature. Final concentration of the reference compounds in the assay was 3.16x10-5 M to 3.16x10-9 M. The final DMSO concentration during incubation was […]
Cell lines were plated in Advanced RPMI 1640 (Gibco, ref 12633-012) cell culture medium, containing 1% Glutamax solution (Gibco, ref 35050-038), 0.4% Pen Strep solution (Gibco, ref 15140-122) and bovine serum. The cPLA2α inhibitors were tested in 0.5% bovine serum (HyClone, ref SH30072.03) with the exception of769-P, A-204, BT-549, SR, T98G, which were tested in the presence of 1.0% serum and A-704 and LNCaP FGS, which were tested in the in the presence of 10% serum. Reference com-pounds were all tested in the presence of 10% bovine serum.
Cells were dispensed in a 384-well plate, at a concentration of 200 - 3200 cells per well, depending on the cell line, in 45 μL medium. Plated cells were incubated in a humidified atmosphere of 5% CO2 at 37 °C. After 24 hours, 5 μL of compound dilu-tion was added and plates were further incubated for another 72 hours. After 72 hours, 25 μL of ATPlite 1Step™ (PerkinElmer) solution was added to each well, and subse-quently shaken for 2 minutes. After 10 minutes of incubation in the dark, the lumines-cence was recorded on an Envision multimode reader (PerkinElmer).
Cell growth control. The cellular doubling times of all cell lines are calculated from the t = 0 hours and t = 72 hours growth signals of the untreated cells. If the doubling time is out of specification (0.5 – 2.0 times deviating from historic average) the assay […]
IC50s were calculated by non-linear regression using IDBS XLfit 5. The percentage growth after 72h (%-growth) was calculated as follows: 100% x (luminescence t = 72h / luminescence untreated,t=72h). This was fitted to the 10log compound concentration (conc) by a 4-parameter logistics curve: %-growth = bottom + (top – bottom) / (1+ 10(logIC50 – conc)*hill)), where hill is the Hill-coefficient, and bottom and top the asymptotic mini-mum and maximum cell growth that the compound allows in that assay.
All analysis were performed in the statistical software package R and visualized using GraphPad Prism version 10.0 .0

SMILES: CCCCCCCOc1ccc(OCC(=O)c2nc(C(=O)OC)cs2)cc1 [GK420]
- IC50 (SJCRH30): 16.6 µM
- IC50 (SK-N-AS): 14.2 µM
- IC50 (SK-N-FI): 20 µM
- IC50 (SNU-C2B): 19.3 µM
- IC50 (SR): 12.5 µM
- IC50 (SUP-T1, SUP-T1): 17.9 µM
- IC50 (SW48, SW48): 22.6 µM
- IC50 (SW480, SW480): 14.3 µM
- IC50 (SW948, SW948): 21.1 µM
- IC50 (SW-620, SW620): 20 µM
- IC50 (T98G): 42.4 µM
- IC50 (T-24, T24): 14.7 µM
- IC50 (TT): 27.7 µM
- IC50 (U2OS, U-2 OS): 8.01 µM
- IC50 (U-87 MG): 20.3 µM
- IC50 (VA-ES-BJ): 23 µM
- pIC50 (Hs578T, breast): 4,834
- pIC50 (J82, urinary_tract): 4,716
- raw signal, dose-response (Figure S7a) (Jurkat E6.1, Log10 M -5): 18200 and 21347
- raw signal, dose-response (Figure S7a) (Jurkat E6.1, Log10 M -5.5): 21213 and 30520
- raw signal, dose-response (Figure S7a) (Jurkat E6.1, Log10 M -6.5): 2114520 and 2235427
- raw signal, dose-response (Figure S7a) (Jurkat E6.1, Log10 M -7): 2341173 and 2551267
- raw signal, dose-response (Figure S7a) (Jurkat E6.1, Log10 M -7.5): 2392960 and 2321813
- raw signal, dose-response (Figure S7a) (Jurkat E6.1, Log10 M -8): 2356933 and 2578573
- pIC50 (Jurkat, blood): 6,245
- pIC50 (K562, blood): 4,814
- raw signal, dose-response (Figure S7a) (K562, Log10 M -4): 74307 and 48600
- raw signal, dose-response (Figure S7a) (K562, Log10 M -4.5): 1190933 and 1527307
- raw signal, dose-response (Figure S7a) (K562, Log10 M -5): 13304880 and 13536973
- raw signal, dose-response (Figure S7a) (K562, Log10 M -5.5): 15252080 and 16813307
- pIC50 (KU812, blood): 5,039
- raw signal, dose-response (Figure S7a) (KU812, Log10 M -4): 2867 and 5600
- raw signal, dose-response (Figure S7a) (KU812, Log10 M -4.5): 66600 and 77573
- raw signal, dose-response (Figure S7a) (KU812, Log10 M -5.5): 3841840 and 3310707
- raw signal, dose-response (Figure S7a) (KU812, Log10 M -6): 3516360 and 3607827
- raw signal, dose-response (Figure S7a) (KU812, Log10 M -6.5): 3576653 and 3459747
- raw signal, dose-response (Figure S7a) (KU812, Log10 M -7): 3573240 and 3479493
- raw signal, dose-response (Figure S7a) (KU812, Log10 M -7.5): 3396627 and 3395373
- raw signal, dose-response (Figure S7a) (KU812, Log10 M -8): 3660107 and 3329680
- pIC50 (LoVo, large_intestine): 4,781
- pIC50 (MCF7, breast): 4,833
- pIC50 (MG63, bone): 4,644
- pIC50 (MIAPaCa2, pancreas): 4,884
- raw signal, dose-response (Figure S7a) (MOLT-4, Log10 M -4): 6187 and 5813
- raw signal, dose-response (Figure S7a) (MOLT-4, Log10 M -5): 64080 and 125733
- raw signal, dose-response (Figure S7a) (MOLT-4, Log10 M -5.5): 4862747 and 5232987
- raw signal, dose-response (Figure S7a) (MOLT-4, Log10 M -6): 6801747 and 6267067
- raw signal, dose-response (Figure S7a) (MOLT-4, Log10 M -6.5): 7366227 and 6477733
- raw signal, dose-response (Figure S7a) (MOLT-4, Log10 M -7): 6306707 and 6935720
- raw signal, dose-response (Figure S7a) (MOLT-4, Log10 M -7.5): 6661907 and 6660467
- raw signal, dose-response (Figure S7a) (MOLT-4, Log10 M -8): 6315747 and 6363187
- pIC50 (MeWo, skin): 4,711
- pIC50 (NCIH82, lung): 5,315
- pIC50 (NCIH460, lung): 4,489
- pIC50 (RPMI7951, skin): 4,852
- pIC50 (RT4, urinary_tract): 4,477
- pIC50 (SHP77, lung): 4,861
- pIC50 (SKNAS, peripheral_nervous_system): 4,847
- pIC50 (SKNFI, peripheral_nervous_system): 4,698
- raw signal, dose-response (Figure S7a) (SR, Log10 M -4): 11267 and 10080
- raw signal, dose-response (Figure S7a) (SR, Log10 M -4.5): 14987 and 22200
- raw signal, dose-response (Figure S7a) (SR, Log10 M -5): 2171560 and 2105733
- raw signal, dose-response (Figure S7a) (SR, Log10 M -5.5): 2501520 and 2976000
- raw signal, dose-response (Figure S7a) (SR, Log10 M -6): 2547880 and 3067093
- raw signal, dose-response (Figure S7a) (SR, Log10 M -6.5): 2848387 and 3116973
- raw signal, dose-response (Figure S7a) (SR, Log10 M -7): 3165427 and 3131507
- raw signal, dose-response (Figure S7a) (SR, Log10 M -7.5): 3036893 and 2296373
- raw signal, dose-response (Figure S7a) (SR, Log10 M -8): 3222893 and 3197013
- raw signal, dose-response (Figure S7a) (SUP-T1, Log10 M -4): 26587 and 37653
- raw signal, dose-response (Figure S7a) (SUP-T1, Log10 M -5): 6935960 and 5931427
- raw signal, dose-response (Figure S7a) (SUP-T1, Log10 M -5.5): 6473080 and 6695013
- raw signal, dose-response (Figure S7a) (SUP-T1, Log10 M -6): 6511467 and 6816760
- raw signal, dose-response (Figure S7a) (SUP-T1, Log10 M -6.5): 6737680 and 6611147
- raw signal, dose-response (Figure S7a) (SUP-T1, Log10 M -7): 6237733 and 6274507
- raw signal, dose-response (Figure S7a) (SUP-T1, Log10 M -7.5): 6362947 and 6848640
- raw signal, dose-response (Figure S7a) (SUP-T1, Log10 M -8): 6336067 and 6341827
- pIC50 (SUPT1, blood): 4,747
- pIC50 (SW48, large_intestine): 4,646
- pIC50 (SW480, large_intestine): 4,843
- pIC50 (SW620, large_intestine): 4,698
- pIC50 (SW948, large_intestine): 4,676
- pIC50 (T24, urinary_tract): 4,833
- pIC50 (T98G, central_nervous_system): 4,373
- pIC50 (TT, thyroid): 4,558
- pIC50 (U2OS, bone): 5,097
- pIC50 (U87MG, central_nervous_system): 4,692
- pIC50 (VAESBJ, soft_tissue): 4,638
